In US20240299385A1 (ReWind Therapeutics NV, priority 2021, published 2024):

Target: T1, human GPR17 receptor (Homo sapiens, UniProt Q13304)
T1 construct: host or cells: HEK-293
Experiment: Calcium mobilization functional assay (Fluo-8, FLIPR TETRA) in HEK-293 hGPR17 (Gα-q assay)
Format: cell-based
Details: antagonism of MDL29,951 (~EC80) induced Ca2+ signal; cell line (HEK-293 hGPR17 or HEK-293 Suchi5 hGPR17) not given
In short: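 Fluo-8-loaded HEK-293 hGPR17 cells (60 min dye loading, room temperature) were preincubated with compound for twenty minutes, then challenged with agonist MDL29,951 at ~EC80, 500 nM. Intracellular calcium release via Gα-q was recorded as FLIPR fluorescence for a further 2 minutes; compounds tested in duplicate.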

T1 sequence (Q13304 whole entry): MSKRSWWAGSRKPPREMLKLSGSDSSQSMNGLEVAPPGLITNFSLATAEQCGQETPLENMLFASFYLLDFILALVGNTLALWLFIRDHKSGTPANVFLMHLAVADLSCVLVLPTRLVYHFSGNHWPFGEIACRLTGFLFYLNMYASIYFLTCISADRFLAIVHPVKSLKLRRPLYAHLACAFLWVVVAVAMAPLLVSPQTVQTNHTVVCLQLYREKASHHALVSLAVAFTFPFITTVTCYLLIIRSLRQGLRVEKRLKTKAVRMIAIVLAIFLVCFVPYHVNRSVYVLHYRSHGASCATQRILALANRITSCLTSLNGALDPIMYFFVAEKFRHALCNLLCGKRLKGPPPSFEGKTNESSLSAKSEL

Row | Structure (SMILES) | IC50 [µM]
1 | O=S(=O)(Nc1ccc(OC(F)F)nc1)c1c[nH]c(-c2ccccc2)c1 [Cpd 233, N-[6-(difluoromethoxy)-3-pyridyl]-5-phenyl-1H-pyrrole-3-sulfonamide] | 0.5 to 5
2 | O=S(=O)(Nc1cc(F)c(C(F)(F)F)cc1F)c1c[nH]c(-c2cc(CO)ccc2F)c1 [Cpd 234, N-[2,5-difluoro-4-(trifluoromethyl)phenyl]-5-[2-fluoro-5-(hydroxymethyl)phenyl]-1H-pyrrole-3-sulfonamide] | < 0.5
3 | COCc1ccc(F)c(-c2cc(S(=O)(=O)Nc3cc(F)c(C(F)(F)F)cc3F)c[nH]2)c1 [Cpd 235, N-[2,5-difluoro-4-(trifluoromethyl)phenyl]-5-[2-fluoro-5-(methoxymethyl)phenyl]-1H-pyrrole-3-sulfonamide] | 0.5 to 5
4 | N#Cc1ccc(NS(=O)(=O)c2c[nH]c(C3CC3)c2)c(F)c1 [Cpd 236, N-(4-cyano-2-fluoro-phenyl)-5-cyclopropyl-1H-pyrrole-3-sulfonamide] | 5 to 50
5 | CCOc1cc(F)c(NS(=O)(=O)c2c[nH]c(-c3ccccn3)c2)cc1F [Cpd 237, N-(4-ethoxy-2,5-difluoro-phenyl)-5-(2-pyridyl)-1H-pyrrole-3-sulfonamide] | 0.5 to 5
6 | N#Cc1ccc(NS(=O)(=O)c2c[nH]cc2C2=CCCC2)c(F)c1 [Cpd 238, N-(4-cyano-2-fluorophenyl)-4-(cyclopent-1-en-1-yl)-1H-pyrrole-3-sulfonamide] | < 0.5
7 | O=S(=O)(Nc1ccc(OC(F)F)cc1F)c1c[nH]c(-c2ccccn2)c1 [Cpd 239, N-[4-(difluoromethoxy)-2-fluoro-phenyl]-5-(2-pyridyl)-1H-pyrrole-3-sulfonamide] | 0.5 to 5
8 | CCOc1ccccc1-c1cc(S(=O)(=O)Nc2ccc(C#N)cc2F)c[nH]1 [Cpd 240, N-(4-cyano-2-fluoro-phenyl)-5-(2-ethoxyphenyl)-1H-pyrrole-3-sulfonamide] | 0.5 to 5
9 | CC(C)Oc1cc(F)c(NS(=O)(=O)c2c[nH]c(-c3ccccn3)c2)cc1F [Cpd 241, N-(2,5-difluoro-4-isopropoxy-phenyl)-5-(2-pyridyl)-1H-pyrrole-3-sulfonamide] | 5 to 50
10 | N#Cc1ccc(NS(=O)(=O)c2c[nH]cc2C2CCCC2)c(F)c1 [Cpd 242, N-(4-cyano-2-fluoro-phenyl)-4-cyclopentyl-1H-pyrrole-3-sulfonamide] | 5 to 50
11 | O=S(=O)(Nc1cc(F)c(C(F)(F)F)cc1F)c1c[nH]c(-c2nccn2CC(F)(F)F)c1 [Cpd 243, N-[2,5-difluoro-4-(trifluoromethyl)phenyl]-5-[1-(2,2,2-trifluoroethyl)imidazol-2-yl]-1H-pyrrole-3-sulfonamide] | 5 to 50
12 | N#Cc1ccc(NS(=O)(=O)c2c[nH]c(-c3ccccc3OC(F)F)c2)c(F)c1 [Cpd 244, N-(4-cyano-2-fluoro-phenyl)-5-[2-(difluoromethoxy)phenyl]-1H-pyrrole-3-sulfonamide] | < 0.5
13 | O=C1CCCN1c1cc(S(=O)(=O)Nc2cc(F)c(C(F)(F)F)cc2F)c[nH]1 [Cpd 245, N-[2,5-difluoro-4-(trifluoromethyl)phenyl]-5-(2-oxopyrrolidin-1-yl)-1H-pyrrole-3-sulfonamide] | 5 to 50
14 | O=S(=O)(Nc1cc(F)c(OC(F)(F)F)cc1F)c1c[nH]c(-c2ccccn2)c1 [Cpd 246, N-[2,5-difluoro-4-(trifluoromethoxy)phenyl]-5-(2-pyridyl)-1H-pyrrole-3-sulfonamide] | < 0.5
15 | COc1ccnc(F)c1-c1cc(S(=O)(=O)Nc2cc(F)c(C(F)(F)F)cc2F)c[nH]1 [Cpd 247, N-[2,5-difluoro-4-(trifluoromethyl)phenyl]-5-(2-fluoro-4-methoxy-3-pyridyl)-1H-pyrrole-3-sulfonamide] | 0.5 to 5
16 | CCn1ccnc1-c1cc(S(=O)(=O)Nc2cc(F)c(C(F)(F)F)cc2F)c[nH]1 [Cpd 248, N-[2,5-difluoro-4-(trifluoromethyl)phenyl]-5-(1-ethylimidazol-2-yl)-1H-pyrrole-3-sulfonamide] | 0.5 to 5
17 | Cc1c(F)cccc1-c1cc(S(=O)(=O)Nc2ccc(C#N)cc2F)c[nH]1 [Cpd 249, N-(4-cyano-2-fluoro-phenyl)-5-(3-fluoro-2-methyl-phenyl)-1H-pyrrole-3-sulfonamide] | 0.5 to 5
18 | Cc1ccc(-c2cc(S(=O)(=O)Nc3ccc(C#N)cc3F)c[nH]2)c(Cl)c1 [Cpd 250, 5-(2-chloro-4-methyl-phenyl)-N-(4-cyano-2-fluoro-phenyl)-1H-pyrrole-3-sulfonamide] | 0.5 to 5
19 | COc1ccc(-c2cc(S(=O)(=O)Nc3ccc(C#N)cc3F)c[nH]2)c(C)c1 [Cpd 251, N-(4-cyano-2-fluoro-phenyl)-5-(4-methoxy-2-methyl-phenyl)-1H-pyrrole-3-sulfonamide] | 5 to 50
20 | Cc1cccc(-c2cc(S(=O)(=O)Nc3ccc(C#N)cc3F)c[nH]2)c1C [Cpd 252, N-(4-cyano-2-fluoro-phenyl)-5-(2,3-dimethylphenyl)-1H-pyrrole-3-sulfonamide] | 0.5 to 5
21 | Cc1c(Cl)cccc1-c1cc(S(=O)(=O)Nc2ccc(C#N)cc2F)c[nH]1 [Cpd 253, 5-(3-chloro-2-methyl-phenyl)-N-(4-cyano-2-fluoro-phenyl)-1H-pyrrole-3-sulfonamide] | 0.5 to 5

Row | Structure (SMILES) | IC50 [µM]
22 | Cc1ccc(Cl)c(-c2cc(S(=O)(=O)Nc3ccc(C#N)cc3F)c[nH]2)c1 [Cpd 254, 5-(2-chloro-5-methyl-phenyl)-N-(4-cyano-2-fluoro-phenyl)-1H-pyrrole-3-sulfonamide] | 0.5 to 5
23 | Cc1cc(F)ccc1-c1cc(S(=O)(=O)Nc2ccc(C#N)cc2F)c[nH]1 [Cpd 255, N-(4-cyano-2-fluoro-phenyl)-5-(4-fluoro-2-methyl-phenyl)-1H-pyrrole-3-sulfonamide] | 0.5 to 5
24 | N#Cc1ccc(NS(=O)(=O)c2c[nH]c(-c3cc(F)ccc3Cl)c2)c(F)c1 [Cpd 256, 5-(2-chloro-5-fluoro-phenyl)-N-(4-cyano-2-fluoro-phenyl)-1H-pyrrole-3-sulfonamide] | < 0.5
25 | COc1ccc(Cl)c(-c2cc(S(=O)(=O)Nc3ccc(C#N)cc3F)c[nH]2)c1 [Cpd 257, 5-(2-chloro-5-methoxy-phenyl)-N-(4-cyano-2-fluoro-phenyl)-1H-pyrrole-3-sulfonamide] | < 0.5
26 | N#Cc1ccc(NS(=O)(=O)c2c[nH]c(-c3ccc(F)cc3Cl)c2)c(F)c1 [Cpd 258, 5-(2-chloro-4-fluoro-phenyl)-N-(4-cyano-2-fluoro-phenyl)-1H-pyrrole-3-sulfonamide] | < 0.5
27 | COc1cc(-c2cc(S(=O)(=O)Nc3ccc(C#N)cc3F)c[nH]2)ccc1F [Cpd 259, N-(4-cyano-2-fluoro-phenyl)-5-(4-fluoro-3-methoxy-phenyl)-1H-pyrrole-3-sulfonamide] | 0.5 to 5
28 | N#Cc1ccc(NS(=O)(=O)c2c[nH]c(-c3cc(Cl)ccc3Cl)c2)c(F)c1 [Cpd 260, N-(4-cyano-2-fluoro-phenyl)-5-(2,5-dichlorophenyl)-1H-pyrrole-3-sulfonamide] | < 0.5
29 | N#Cc1ccc(NS(=O)(=O)c2c[nH]c(-c3ccc(Cl)cc3Cl)c2)c(F)c1 [Cpd 261, N-(4-cyano-2-fluoro-phenyl)-5-(2,4-dichlorophenyl)-1H-pyrrole-3-sulfonamide] | 0.5 to 5
30 | Cc1cc(Cl)ccc1-c1cc(S(=O)(=O)Nc2ccc(C#N)cc2F)c[nH]1 [Cpd 262, 5-(4-chloro-2-methyl-phenyl)-N-(4-cyano-2-fluoro-phenyl)-1H-pyrrole-3-sulfonamide] | 0.5 to 5
31 | Cc1cccc(-c2cc(S(=O)(=O)Nc3ccc(C#N)cc3F)c[nH]2)c1Cl [Cpd 263, 5-(2-chloro-3-methyl-phenyl)-N-(4-cyano-2-fluoro-phenyl)-1H-pyrrole-3-sulfonamide] | 0.5 to 5
32 | Cc1ccc(-c2cc(S(=O)(=O)Nc3ccc(C#N)cc3F)c[nH]2)cc1F [Cpd 264, N-(4-cyano-2-fluoro-phenyl)-5-(3-fluoro-4-methyl-phenyl)-1H-pyrrole-3-sulfonamide] | 0.5 to 5
33 | COc1cccc(Cl)c1-c1cc(S(=O)(=O)Nc2ccc(C#N)cc2F)c[nH]1 [Cpd 265, 5-(2-chloro-6-methoxy-phenyl)-N-(4-cyano-2-fluoro-phenyl)-1H-pyrrole-3-sulfonamide] | 0.5 to 5
34 | COc1cccc(-c2cc(S(=O)(=O)Nc3ccc(C#N)cc3F)c[nH]2)c1Cl [Cpd 266, 5-(2-chloro-3-methoxy-phenyl)-N-(4-cyano-2-fluoro-phenyl)-1H-pyrrole-3-sulfonamide] | 5 to 50
35 | N#Cc1ccc(NS(=O)(=O)c2c[nH]c(-c3cccc(F)c3Cl)c2)c(F)c1 [Cpd 267, 5-(2-chloro-3-fluoro-phenyl)-N-(4-cyano-2-fluoro-phenyl)-1H-pyrrole-3-sulfonamide] | < 0.5
36 | COc1ccc(C)c(-c2cc(S(=O)(=O)Nc3ccc(C#N)cc3F)c[nH]2)c1 [Cpd 268, N-(4-cyano-2-fluoro-phenyl)-5-(5-methoxy-2-methyl-phenyl)-1H-pyrrole-3-sulfonamide] | 0.5 to 5
37 | Cc1cc(-c2cc(S(=O)(=O)Nc3ccc(C#N)cc3F)c[nH]2)ccc1F [Cpd 269, N-(4-cyano-2-fluoro-phenyl)-5-(4-fluoro-3-methyl-phenyl)-1H-pyrrole-3-sulfonamide] | < 0.5
38 | N#Cc1ccc(NS(=O)(=O)c2c[nH]c(-c3c(Cl)cccc3Cl)c2)c(F)c1 [Cpd 270, N-(4-cyano-2-fluoro-phenyl)-5-(2,6-dichlorophenyl)-1H-pyrrole-3-sulfonamide] | 0.5 to 5
39 | O=S(=O)(Nc1cc(F)c(OC(F)F)cc1F)c1c[nH]cc1Cc1ccccc1 [Cpd 271, 4-benzyl-N-[4-(difluoromethoxy)-2,5-difluoro-phenyl]-1H-pyrrole-3-sulfonamide] | < 0.5
40 | O=S(=O)(Nc1cc(F)c(C(F)(F)F)cc1F)c1c[nH]c(-c2cccs2)c1 [Cpd 272, N-[2,5-difluoro-4-(trifluoromethyl)phenyl]-5-(2-thienyl)-1H-pyrrole-3-sulfonamide] | < 0.5
41 | O=S(=O)(Nc1cc(F)c(C(F)(F)F)cc1F)c1c[nH]c(-c2ccsc2)c1 [Cpd 273, N-[2,5-difluoro-4-(trifluoromethyl)phenyl]-5-(3-thienyl)-1H-pyrrole-3-sulfonamide] | < 0.5
